In patent US12303509B2, “Compounds for the treatment of BRAF-associated diseases and disorders” (Pfizer Inc., priority 2020, dated 2025):
Structures can show the parent of a compound that is named as a salt. Where two headings read alike, the source gives them in different places.

Experiments:
[1] = target: full-length FLAG-tagged B-Raf(V600E) (Homo sapiens (Human), UniProt P15056, V600E); assay: BRAF V600E enzyme assay (TR-FRET competitive displacement); format: binding
Summary of the method: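 TR-FRET tracer competition: compound (top dose 10 μM, 3-fold, 11 points) incubated 60 min at ambient temperature with FLAG-tagged full-length B-Raf(V600E) (5 nM), Eu anti-FLAG cryptate (0.5 nM) and tracer (50 nM), pH 7.4 HEPES/MgCl2 buffer. 665/615 ratio converted to percent of control; IC50 where fitted curve crosses 50 POC.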

A375 cells = assay: Cellular phospho-ERK inhibition assay in A375 cells; format: cell-based; conditions: Homo sapiens, A-375, A375 cells (head prints A357), 2 hours treatment, read-out: A357 cell IC50
Summary of the method: (§1)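 In Cell Western detection of phospho-ERK1/2 (Thr202/Tyr204) over GAPDH after 2 h compound exposure (66 pM to 10 μM, 9 points, 0.25% DMSO) of A375 cells in DMEM or H1755 cells in RPMI, both with 10% FBS. Percent of control set by DMSO and 10 μM binimetinib; 4-parameter IC50.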

H1755 cells = assay: Cellular phospho-ERK inhibition assay in H1755 cells; format: cell-based; conditions: Homo sapiens, NCI-H1755, 2 hours treatment, read-out: H1755 Cell IC50
Summary of the method: as §1

[2] = MDR1 LLC-PK1 and BCRP MDCKII permeability assay: permeability coefficient (Papp); format: in vitro ADME
Excerpt: (§2) Final organic concentration in the assay was 1%.

P-gp (MDR1) = P-gp (MDR1) (Homo sapiens (Human), UniProt P08183); assay: MDR1 LLC-PK1 permeability assay: efflux ratio; format: in vitro ADME; conditions: pig
Excerpt: as §2

BCRP [3] = target: BCRP (Homo sapiens (Human), UniProt Q9UNQ0); assay: BCRP MDCKII permeability assay: efflux ratio; format: in vitro ADME; conditions: dog
[4] = PK (free brain-to-free plasma ratio) (mouse); format: in vivo; conditions: male CD-1 mice, oral gavage 10 mg/kg, unbound brain-to-unbound plasma, read-out: B/P ratio (free)
Description: The ability of representative compounds to penetrate the BBB in mice was determined by evaluating the unbound brain-to-unbound plasma (also referred to as free brain-to-free plasma) concentration ratio in male CD-1 mice.
Brain compound levels were generated from oral mouse PK dosing with typical sampling times of 2, 4, 8, 12 and 24 hours post oral gavage dosing at 10 mg/kg. Brain samples were stored at −20±5° C. prior to analysis. Concentrations of test compound in mouse brain homogenate were determined by liquid chromatography tandem mass spectrometry (LC-MS/MS) following protein precipitation with acetonitrile. A 12-point calibration curve, ranging from 0.5 to 10,000 ng/mL, was prepared in duplicate. A solution of 400 μg/mL of test compound in dimethyl sulfoxide (DMSO) was serially diluted (3-fold) in 100% DMSO, and then 2.5 μL of each standard solution was added to 100 μL of naïve male CD-1 mice brain homogenate. To mimic the extraction in the standard curve, 2.5 μL of DMSO was added to all test samples. Both calibration and test brain homogenate samples were spiked with 10 μL of an IS (1 μg/mL of a structural analog). Brain homogenate was generated by adding 0.75 mL of 4:1 water:MeOH to each brain sample followed by homogenization for 1 minute with bead beater tubes a 6 m/s using an MP Fast Prep-24®. Proteins were precipitated from 100 μL of brain homogenate sample by the addition of 300 μL of acetonitrile. Samples were vortex-mixed for 5 minutes and spun in an Allegra X-12R centrifuge (Beckman Coulter, Fullerton, CA; SX4750A rotor) for 15 min at approximately 1,500×g at 4° C. A 100 μL aliquot of each supernatant was transferred via a 550 μL Personal Pipettor (Apricot Designs, Monrovia, CA) to 96-well plates and diluted 1:1 with HPLC grade water. The resulting plates were sealed with aluminum for LC-MS/MS analysis.
Brain-to-plasma ratios were calculated using the concentration of compound measured in the brain divided by the concentration of compound measured in the plasma. Brain-to-plasma ratios were always generated from a single animal and time point. Free brain-to-free plasma ratios were calculated by multiplying the brain-to-plasma ratio by the in vitro brain homogenate free fraction divided by the in vitro plasma free fraction using the following equation: (B/P)*(Bfu/Pfu). Table C provides the free brain-to-free plasma ratios of compounds disclosed herein.

[5] = tested on: NCI-H1666 (BRAF G466V) cells; assay: Cellular phospho-ERK inhibition assay in NCI-H1666 cells; format: cell-based; conditions: Homo sapiens, 1 hour treatment, read-out: IC50 NCI-H1666 pERK
Description: (§3) The compounds of Example 13, Example 14 and Example 126 were evaluated in a phospho-ERK assay in two mutant BRAF Class III cell lines: NCI-H1666 (BRAF^G466V) and WM3629 cells (BRAF^D594G/NRAS^G12D). NCI-H1666 cells were obtained from the American Type Culture Collection (ATCC, Rockville, MD) and WM3629 cells were obtained from Rockland Immunochemicals (Limerick, PA). Cells were maintained in RPMI growth medium containing 10% FBS.
(§4) Cells were harvested according to standard protocols, counted, and plated onto flat-bottom, 96-well tissue culture plates (Costar #3599) at 2.5×10^4 cells/well in 100 μL/well of growth medium containing 10% FBS. After an overnight incubation at 37° C. with 5% CO2 cells were treated for 1 hour at 37° C., 5% CO2 with inhibitors prepared as a 9-point, 1:3.33 fold dilution series with final compound concentrations ranging from 66 pM-10 μM and a constant DMSO concentration of 0.25%. Control wells contained either 0.25% DMSO alone (uninhibited control) or 10 μM binimetinib (complete inhibition control). The levels of phosphorylated ERK were determined using an In Cell Western protocol: following compound incubation, growth medium was discarded, and cells were fixed with 0.4% formaldehyde in PBS for 20 minutes at room temperature. Cells were permeabilized with 100% methanol for 10 minutes at room temperature. Plates were washed with PBS containing 0.05% Tween-20 and blocked for 1 hour at room temperature with LI-COR Blocking Buffer (LI-COR Biosciences; Cat. #927-40000). Plates were then incubated for 2 hours at room temperature with 50 μL of a 1:400 dilution of anti-phospho-ERK1/2 (Thr202/Tyr204) (Cell Signaling; Cat. #9101) and a 1:1000 dilution of anti-GAPDH (Millipore; Cat. #MAB374) in LI-COR blocking buffer containing 0.05% Tween-20. […] Plates were analyzed by reading on an Odyssey CLx infrared scanner. […]
(§5) [formula] • Where: • Xmax d Average Uninhibited Controls • Xmin Average Complete Inhibition Controls • IC50 values were then calculated using a 4-parameter fit in XLfit software and are shown in Table A2.

[6] = tested on: WM3629 cells (BRAF D594G/NRAS G12D); assay: Cellular phospho-ERK inhibition assay in WM3629 cells; format: cell-based; conditions: 1 hour treatment, read-out: IC50 WM3629 pERK
Description: as §3, §4, §5

[7] = tested on: NCI-H1666 (BRAF G466V) cells; assay: Proliferation assay (CellTiter-Glo) in NCI-H1666 cells; format: cell-based; conditions: Homo sapiens, 3-5 day incubation
Description: as §3, with “proliferation” for “phospho-ERK”
(§6) Cells were harvested according to standard protocols, counted, and plated onto flat-bottom, 96-well tissue culture plates (Costar #3599) at 2000-5000 cells/well in 100 μL/well of growth medium containing 10% FBS. Cells were incubated at 37° C. with 5% CO2 overnight then treated with inhibitors prepared as a 9-point, 1:3.33 fold dilution series with final compound concentrations ranging from 66 pM-10 μM and a constant DMSO concentration of 0.25%. Control wells contained 0.25% DMSO alone. After a 3-5 day incubation at 37° C., 5% CO2, cell viability was determined by adding 100 μL CellTiter-Glo® Reagent (Promega) to each well and incubated for 15 minutes at room temperature. “Day 0” controls were determined by performing CellTiter-Glo© assay on DMSO control wells at the time of compound treatment (“Day 0” control=0 POC). Luminescence was measured on a Cytation 5 plate reader (BioTek) and values were converted to POC using the following equation:
(§7) [formula] • Where: • Xmax Average DMSO Controls • Xmin Average “Day 0” DMSO Controls • IC50 values were calculated using a 4-parameter fit in XLfit software and are shown in Table A2.

[8] = tested on: WM3629 cells (BRAF D594G/NRAS G12D); assay: Proliferation assay (CellTiter-Glo) in WM3629 cells; format: cell-based; conditions: 3-5 day incubation
Description: as §3, with “proliferation” for “phospho-ERK”
as §6, §7

BCRP [9] = conditions: reported, Mittapalli et al.; cited from earlier work
[10] = averaged IC50, TR-FRET tracer displacement, 60 min

Sequence of P-gp (MDR1) (P08183 whole entry, species assumed): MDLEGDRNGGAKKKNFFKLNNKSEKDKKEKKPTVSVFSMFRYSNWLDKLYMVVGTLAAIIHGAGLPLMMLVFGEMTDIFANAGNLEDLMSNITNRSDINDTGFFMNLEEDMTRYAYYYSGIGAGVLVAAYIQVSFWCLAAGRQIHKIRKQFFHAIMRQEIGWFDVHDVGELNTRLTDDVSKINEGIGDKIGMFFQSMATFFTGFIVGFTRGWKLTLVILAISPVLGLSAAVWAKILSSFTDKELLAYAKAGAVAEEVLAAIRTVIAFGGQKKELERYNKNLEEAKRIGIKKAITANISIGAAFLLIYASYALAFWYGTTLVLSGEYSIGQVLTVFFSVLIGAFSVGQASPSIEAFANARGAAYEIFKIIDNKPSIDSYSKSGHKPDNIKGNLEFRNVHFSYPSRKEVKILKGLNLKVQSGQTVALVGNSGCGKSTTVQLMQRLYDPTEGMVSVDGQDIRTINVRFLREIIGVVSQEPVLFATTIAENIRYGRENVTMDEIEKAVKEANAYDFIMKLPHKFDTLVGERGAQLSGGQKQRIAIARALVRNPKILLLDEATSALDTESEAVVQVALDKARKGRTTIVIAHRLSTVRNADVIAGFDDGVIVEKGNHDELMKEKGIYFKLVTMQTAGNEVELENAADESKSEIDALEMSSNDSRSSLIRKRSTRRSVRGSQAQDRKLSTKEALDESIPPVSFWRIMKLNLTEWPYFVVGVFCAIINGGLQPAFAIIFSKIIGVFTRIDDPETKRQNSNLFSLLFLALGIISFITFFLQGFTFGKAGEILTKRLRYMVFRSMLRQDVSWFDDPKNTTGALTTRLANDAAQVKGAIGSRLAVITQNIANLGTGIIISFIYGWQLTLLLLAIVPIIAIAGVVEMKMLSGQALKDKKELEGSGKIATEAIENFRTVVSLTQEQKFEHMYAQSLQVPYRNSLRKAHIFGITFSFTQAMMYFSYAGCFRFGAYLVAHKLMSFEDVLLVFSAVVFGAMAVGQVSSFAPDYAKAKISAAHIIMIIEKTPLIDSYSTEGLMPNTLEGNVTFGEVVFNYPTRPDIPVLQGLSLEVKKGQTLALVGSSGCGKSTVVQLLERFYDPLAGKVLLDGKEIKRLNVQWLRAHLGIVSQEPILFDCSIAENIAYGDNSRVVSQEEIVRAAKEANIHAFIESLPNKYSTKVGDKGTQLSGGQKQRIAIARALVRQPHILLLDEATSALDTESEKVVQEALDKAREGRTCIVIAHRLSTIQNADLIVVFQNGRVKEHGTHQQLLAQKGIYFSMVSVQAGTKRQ
Sequence of full-length FLAG-tagged B-Raf(V600E) (P15056 whole entry V600E): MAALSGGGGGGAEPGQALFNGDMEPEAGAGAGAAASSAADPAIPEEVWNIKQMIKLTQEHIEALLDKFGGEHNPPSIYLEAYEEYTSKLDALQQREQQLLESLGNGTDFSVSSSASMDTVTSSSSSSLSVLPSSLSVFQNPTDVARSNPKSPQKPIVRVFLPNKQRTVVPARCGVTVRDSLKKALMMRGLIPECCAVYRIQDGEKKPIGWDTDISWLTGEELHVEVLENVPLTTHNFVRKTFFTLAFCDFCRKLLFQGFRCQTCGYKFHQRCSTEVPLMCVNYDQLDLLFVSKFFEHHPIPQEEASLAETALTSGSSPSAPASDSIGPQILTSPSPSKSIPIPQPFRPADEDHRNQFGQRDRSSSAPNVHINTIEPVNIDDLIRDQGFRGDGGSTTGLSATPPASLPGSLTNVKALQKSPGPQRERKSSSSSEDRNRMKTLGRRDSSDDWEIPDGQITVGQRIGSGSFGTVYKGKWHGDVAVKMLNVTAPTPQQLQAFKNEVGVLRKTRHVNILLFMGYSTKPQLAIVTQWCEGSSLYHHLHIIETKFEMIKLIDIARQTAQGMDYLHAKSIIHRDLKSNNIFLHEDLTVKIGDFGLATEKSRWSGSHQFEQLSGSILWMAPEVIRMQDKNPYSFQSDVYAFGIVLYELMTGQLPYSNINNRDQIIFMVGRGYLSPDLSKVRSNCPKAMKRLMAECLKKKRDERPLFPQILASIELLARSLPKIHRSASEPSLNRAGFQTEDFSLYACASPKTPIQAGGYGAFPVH
Sequence of BCRP (Homo sapiens (Human), UniProt Q9UNQ0) (Q9UNQ0 whole entry): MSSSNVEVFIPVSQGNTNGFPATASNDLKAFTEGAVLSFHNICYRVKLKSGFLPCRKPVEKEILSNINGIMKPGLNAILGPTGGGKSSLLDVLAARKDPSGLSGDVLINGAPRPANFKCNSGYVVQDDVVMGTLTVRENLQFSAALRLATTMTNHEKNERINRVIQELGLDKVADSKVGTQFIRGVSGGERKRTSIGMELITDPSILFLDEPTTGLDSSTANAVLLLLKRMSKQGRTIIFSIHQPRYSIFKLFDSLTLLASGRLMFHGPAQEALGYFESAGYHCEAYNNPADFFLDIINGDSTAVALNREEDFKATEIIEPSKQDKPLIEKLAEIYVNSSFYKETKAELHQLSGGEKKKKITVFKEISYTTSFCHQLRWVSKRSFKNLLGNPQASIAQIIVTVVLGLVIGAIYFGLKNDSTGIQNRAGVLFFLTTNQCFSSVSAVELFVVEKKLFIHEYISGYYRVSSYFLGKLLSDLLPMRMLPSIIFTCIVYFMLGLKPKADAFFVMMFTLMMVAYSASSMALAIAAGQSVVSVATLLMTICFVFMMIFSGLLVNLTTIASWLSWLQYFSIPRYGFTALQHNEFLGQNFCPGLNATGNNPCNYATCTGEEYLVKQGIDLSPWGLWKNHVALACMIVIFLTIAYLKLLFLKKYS

| Compound | IC50 [1, 10] | IC50 (A375 cells) | IC50 (H1755 cells) | Papp at 2 h, 1 µM [2] | efflux ratio at 2 h, 1 µM (P-gp (MDR1)) | efflux ratio at 2 h, 1 µM (BCRP [3]) | Kp [4] | IC50 [1] | IC50 [5] | IC50 [6] | IC50 [7] | IC50 [8] | BCRP efflux ratio (BCRP [9]) |
| --- | --- | --- | --- | --- | --- | --- | --- | --- | --- | --- | --- | --- | --- |
| Cn1cnc2ccc(Nc3c(F)ccc(NS(=O)(=O)N4CC(F)C4)c3Cl)c(Cl)c2c1=O [Example 126, N-(2-chloro-3-((5-chloro-3-methyl-4-oxo-3,4-dihydroquinazolin-6-yl)amino)-4-fluorophenyl)-3-fluoroazetidine-1-sulfonamide] |  | 2 nM | 26 nM | 44 ×10⁻⁶ cm/s | 2.1 | 4.2 |  |  | 15 nM | 1.4 nM | 390 nM | > 10000 nM |  |
| COC1CN(S(=O)(=O)Nc2ccc(F)c(Nc3ccc4ncn(C)c(=O)c4c3Cl)c2Cl)C1 [Example 129, N-(2-chloro-3-((5-chloro-3-methyl-4-oxo-3,4-dihydroquinazolin-6-yl)amino)-4-fluorophenyl)-3-methoxyazetidine-1-sulfonamide] | 12 nM | 9 nM | 37 nM | 37 ×10⁻⁶ cm/s | 1.6 | 5.3 | 0.18 to 0.22 |  |  |  |  |  |  |
| COCC1CN(S(=O)(=O)Nc2ccc(F)c(Nc3ccc4ncn(C)c(=O)c4c3C)c2Cl)C1 [Example 131, N-(2-chloro-3-((3,5-dimethyl-4-oxo-3,4-dihydroquinazolin-6-yl)amino)-4-fluorophenyl)-3-(methoxymethyl)azetidine-1-sulfonamide] | 16 nM | 13 nM | 38 nM | 55 ×10⁻⁶ cm/s | 2.1 | 1.7 | 0.3 to 0.5 |  |  |  |  |  |  |
| CC(C)(C)c1nc(-c2cccc(NS(=O)(=O)c3c(F)cccc3F)c2F)c(-c2ccnc(N)n2)s1 [dabrafenib] |  |  |  |  |  |  |  |  |  |  |  |  | 21.0 |
| CCCS(=O)(=O)Nc1ccc(F)c(C(=O)c2c[nH]c3ncc(-c4ccc(Cl)cc4)cc23)c1F [vemurafenib] |  |  |  |  |  |  |  |  |  |  |  |  | 495 |

Now from value to molecule, other results behind:

| IC50 [1, 10] | IC50 (A375 cells) | IC50 (H1755 cells) | Papp at 2 h, 1 µM [2] | efflux ratio at 2 h, 1 µM (P-gp (MDR1)) | efflux ratio at 2 h, 1 µM (BCRP [3]) | Kp [4] | IC50 [1] | IC50 [5] | IC50 [6] | IC50 [7] | Compound | IC50 [8] | BCRP efflux ratio (BCRP [9]) |
| --- | --- | --- | --- | --- | --- | --- | --- | --- | --- | --- | --- | --- | --- |
| 2 nM | 3 nM | 56 nM | 34 ×10⁻⁶ cm/s | 1.4 | 0.9 | 0.35 to 0.47 |  |  |  |  | Cn1cnc2ccc(Oc3c(F)ccc(NS(=O)(=O)N4CCCC4)c3Cl)c(F)c2c1=O [Example 44, N-(2-chloro-4-fluoro-3-((5-fluoro-3-methyl-4-oxo-3,4-dihydroquinazolin-6-yl)oxy)phenyl)pyrrolidine-1-sulfonamide trifluoroacetate] |  |  |
| 3 nM | 1 nM | 36 nM | 29 ×10⁻⁶ cm/s | 2.2 | 1.7 | 0.29 to 0.33 |  |  |  |  | CO[C@@H]1CCN(S(=O)(=O)Nc2ccc(F)c(Oc3ccc4ncn(C)c(=O)c4c3F)c2Cl)C1 [Example 48, (R)-N-(2-chloro-4-fluoro-3-((5-fluoro-3-methyl-4-oxo-3,4-dihydroquinazolin-6-yl)oxy)phenyl)-3-methoxypyrrolidine-1-sulfonamide trifluoroacetate] |  |  |
|  | 14 nM | 43 nM | 25 ×10⁻⁶ cm/s | 1.8 | 1 | 0.17 to 0.36 | 8 nM |  |  |  | Cc1c(Oc2c(F)ccc(NS(=O)(=O)N3CC[C@@H](F)C3)c2Cl)ccc2ncn(C)c(=O)c12 [Example 70, (R)-N-(2-chloro-3-((3,5-dimethyl-4-oxo-3,4-dihydroquinazolin-6-yl)oxy)-4-fluorophenyl)-3-fluoropyrrolidine-1-sulfonamide] |  |  |
| 11 nM | 7 nM | 38 nM | 30 ×10⁻⁶ cm/s | 2.3 | 7.6 | 0.12 to 0.16 |  |  |  |  | COC1CN(S(=O)(=O)Nc2ccc(F)c(Nc3ccc4ncn(C)c(=O)c4c3F)c2Cl)C1 [Example 130, N-(2-chloro-4-fluoro-3-((5-fluoro-3-methyl-4-oxo-3,4-dihydroquinazolin-6-yl)amino)phenyl)-3-methoxyazetidine-1-sulfonamide] |  |  |
